Assay [1] has as its target Mitochondrial peptide methionine sulfoxide reductase (Bos taurus, UniProt P54149). In words: Absorbance-based biochemical high throughput dose response assay for activators of Methionine sulfoxide reductase A (MsrA). Format: functional.
A further assay deals with Paired box protein Pax-8 (Homo sapiens, UniProt Q06710). The assay can be described thus: inhibitors of PAX8-driven TPO luciferase reporter, dose response, RMG-I cells, cherry-pick (AID 687027).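 Further: luciferase reporter driven by Pax8 target thyroperoxidase promoter measured by SteadyGlo luminescence.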 It counts as functional, cell-based. For orientation: In a reporter assay the amount or activity of a reporter protein is the signal.
The target of assay [2] is T1, Histone-lysine N-methyltransferase NSD2 (Homo sapiens, UniProt O96028).
T1 sequence (O96028 whole entry): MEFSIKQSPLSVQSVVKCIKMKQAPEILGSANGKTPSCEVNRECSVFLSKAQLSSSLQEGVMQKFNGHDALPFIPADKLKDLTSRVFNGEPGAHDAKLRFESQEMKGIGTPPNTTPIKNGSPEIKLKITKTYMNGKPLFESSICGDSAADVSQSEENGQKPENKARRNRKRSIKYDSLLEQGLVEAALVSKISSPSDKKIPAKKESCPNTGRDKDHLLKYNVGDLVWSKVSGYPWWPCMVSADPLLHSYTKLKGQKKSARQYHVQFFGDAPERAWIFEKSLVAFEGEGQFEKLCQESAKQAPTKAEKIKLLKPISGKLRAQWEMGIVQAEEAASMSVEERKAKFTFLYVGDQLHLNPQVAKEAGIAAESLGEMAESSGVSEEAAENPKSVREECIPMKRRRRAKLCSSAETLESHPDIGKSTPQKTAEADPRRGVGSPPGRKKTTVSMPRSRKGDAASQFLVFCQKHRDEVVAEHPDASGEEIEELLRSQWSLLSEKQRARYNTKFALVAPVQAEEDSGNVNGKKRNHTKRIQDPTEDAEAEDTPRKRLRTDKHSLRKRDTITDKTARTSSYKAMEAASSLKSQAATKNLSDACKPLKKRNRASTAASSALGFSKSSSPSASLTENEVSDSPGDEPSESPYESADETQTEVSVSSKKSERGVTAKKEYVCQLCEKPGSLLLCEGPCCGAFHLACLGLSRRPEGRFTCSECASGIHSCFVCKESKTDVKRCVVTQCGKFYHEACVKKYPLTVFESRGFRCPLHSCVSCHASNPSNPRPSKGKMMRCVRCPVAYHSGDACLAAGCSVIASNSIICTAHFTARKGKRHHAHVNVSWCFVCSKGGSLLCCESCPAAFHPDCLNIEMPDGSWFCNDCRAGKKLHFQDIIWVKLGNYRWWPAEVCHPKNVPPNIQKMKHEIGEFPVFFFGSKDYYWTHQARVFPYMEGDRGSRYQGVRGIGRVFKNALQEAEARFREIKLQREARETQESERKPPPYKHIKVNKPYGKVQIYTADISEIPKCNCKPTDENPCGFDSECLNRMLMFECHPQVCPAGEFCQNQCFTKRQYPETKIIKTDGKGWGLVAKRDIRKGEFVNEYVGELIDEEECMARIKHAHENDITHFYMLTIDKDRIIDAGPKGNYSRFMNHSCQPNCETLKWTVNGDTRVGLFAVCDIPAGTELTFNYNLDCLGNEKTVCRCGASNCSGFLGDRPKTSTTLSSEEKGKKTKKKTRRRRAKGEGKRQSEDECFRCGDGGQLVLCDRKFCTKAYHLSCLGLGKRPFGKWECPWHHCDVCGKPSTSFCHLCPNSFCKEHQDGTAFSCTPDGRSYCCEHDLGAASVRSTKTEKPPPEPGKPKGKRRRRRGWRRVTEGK
Format: biochemical.

Assay [3] deals with Tyrosyl-DNA phosphodiesterase 2 (Homo sapiens, UniProt O95551). The assay can be described thus: human TDP2 enzyme inhibitors, dose response, biochemical, epi absorbance, IC50 (AID 743297).
Assay [4] deals with T2, ATP-dependent translocase ABCB1 (Homo sapiens, UniProt P08183). The assay can be described thus: ABCG2 efflux pump inhibitor potency, dose response, Ig-MXP3 cells, JC-1, flow cytometry, set 2 (AID 504566).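 Further: flow cytometry median green fluorescence of retained JC-1 dye; potency of efflux pump inhibition measured as rising substrate retention.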 Particulars: read-out: EC50_MICROM_. Format: functional. In general terms: Flow cytometry measures light scatter and fluorescence of single cells or particles in a stream.

The target of assay [5] is T2, ATP-dependent translocase ABCB1. In words: ABCB1 efflux inhibitor potency, dose response, Jurkat-DNR cells, JC-1, flow cytometry, set 2 (AID 504569).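 Further: potency of pump inhibitors that raise cellular JC-1 green fluorescence up to the nicardipine level.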 Format: functional. Particulars: read-out: EC50_MICROM_.
Assay [6] can be described thus: inhibitors of firefly luciferase expression or activity, dose response, H4 neuroglioma cells, luminescence (AID 1990). Format: functional, cell-based.
Assay [7] can be described thus: Luminescence Cell-Based Dose Response HTS to Identify Inhibitors of 5'UTR Stem-Loop Driven Prion Protein mRNA Translation in H4 Neuroglioblastoma Cells. [Related pubchem assays: 1827 (Project Summary), 1813 (Primary HTS)]. It counts as functional.
A short description of assay [8]: inhibitors of SNCA 5'UTR-driven reporter translation, confirmation, H4 neuroglioma cells, luminescence (AID 1988). Format: functional, cell-based.
The target in assay [9] is Induced myeloid leukemia cell differentiation protein Mcl-1 (Homo sapiens, UniProt Q07820). Format: functional.
Assay [10] in a line: AlphaScreen signal interference compounds, dose response, artefact control for ARNT-TACC3 interaction inhibitor project, biochemical, luminescence, cherry-pick (AID 651705).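 Further: AlphaScreen bead proximity signal that flags compounds interfering with the detection technology; potency reflects signal decrease which marks the compound as an assay artifact.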 Format: functional. (In general: Bead proximity is the source of the signal in Alpha formats.)
The nature of assay [11]: ARNT/TACC3 interaction disruptors, potency, confirmation, biochemical, AlphaScreen, cherry-picked samples (AID 651703).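 Further: His-tagged ARNT PAS-B domain paired with GST-TACC3 E629A dimer coactivator fragment; potency of inhibitors that break up the complex and lower AlphaScreen signal.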 It counts as functional, Homo sapiens.
For assay [12], the target named is Platelet-activating factor acetylhydrolase (Mus musculus, UniProt Q60963). The assay can be described thus: Late stage assay provider results from the probe development effort to identify inhibitors of pPAFAH: fluorescence-based dose-response biochemical gel-based competitive Activity-Based Protein Profiling (ABPP) assay for SAR compounds. It counts as functional.

For assay [13], the target named is Potassium voltage-gated channel subfamily KQT member 2 (Rattus norvegicus, UniProt O88943). In words: KCNQ2 potassium channel inhibitors, dose response, cell-based, automated electrophysiology, set II, rat KCNQ2 (AID 588637). It counts as functional.
In assay [14] the target is T3, Low molecular weight phosphotyrosine protein phosphatase (Homo sapiens, UniProt P24666). Format: functional. As to conditions: read-out: IC50_Mean.
For assay [15], the target named is T3, Low molecular weight phosphotyrosine protein phosphatase. Format: functional. Particulars: read-out: IC50_Mean. The source holds these as a separate data set.
The target of assay [16] is T4, Tyrosine-protein phosphatase non-receptor type 22 (Homo sapiens, UniProt Q9Y2R2).
T4 sequence (Q9Y2R2 whole entry): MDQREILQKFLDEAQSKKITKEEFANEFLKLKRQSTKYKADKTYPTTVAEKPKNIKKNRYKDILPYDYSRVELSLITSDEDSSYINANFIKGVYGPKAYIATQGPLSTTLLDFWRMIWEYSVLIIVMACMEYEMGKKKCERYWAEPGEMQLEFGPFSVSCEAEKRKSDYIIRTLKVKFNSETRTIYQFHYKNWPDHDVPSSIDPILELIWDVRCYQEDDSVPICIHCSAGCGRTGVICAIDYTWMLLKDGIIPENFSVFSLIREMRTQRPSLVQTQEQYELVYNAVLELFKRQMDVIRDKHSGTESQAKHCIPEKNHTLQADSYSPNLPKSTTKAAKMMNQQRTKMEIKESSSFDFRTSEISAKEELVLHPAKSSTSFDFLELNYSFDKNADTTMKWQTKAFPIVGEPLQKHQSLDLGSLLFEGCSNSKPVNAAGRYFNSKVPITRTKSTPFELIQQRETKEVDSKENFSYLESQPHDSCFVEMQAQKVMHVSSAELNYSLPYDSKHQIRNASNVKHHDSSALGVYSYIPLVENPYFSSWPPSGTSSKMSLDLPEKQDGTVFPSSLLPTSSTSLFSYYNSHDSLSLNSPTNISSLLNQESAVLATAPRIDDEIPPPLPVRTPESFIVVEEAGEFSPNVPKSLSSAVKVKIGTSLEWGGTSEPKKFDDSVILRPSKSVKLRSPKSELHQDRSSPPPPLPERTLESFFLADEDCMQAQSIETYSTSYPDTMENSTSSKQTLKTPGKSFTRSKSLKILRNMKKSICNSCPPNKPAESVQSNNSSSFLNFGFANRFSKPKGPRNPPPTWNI
The assay can be described thus: LYP phosphatase inhibition for selectivity, dose response, selectivity assay for LMPTP inhibitor project, biochemical, fluorescence, LYP catalytic domain (AID 652006). It counts as functional. Particulars: read-out: IC50_Mean.

Calls of active or inactive are those of the source.

What is called AC50 is the midpoint of the concentration-response curve, whichever way the signal moves.

T2 sequence (P08183 whole entry): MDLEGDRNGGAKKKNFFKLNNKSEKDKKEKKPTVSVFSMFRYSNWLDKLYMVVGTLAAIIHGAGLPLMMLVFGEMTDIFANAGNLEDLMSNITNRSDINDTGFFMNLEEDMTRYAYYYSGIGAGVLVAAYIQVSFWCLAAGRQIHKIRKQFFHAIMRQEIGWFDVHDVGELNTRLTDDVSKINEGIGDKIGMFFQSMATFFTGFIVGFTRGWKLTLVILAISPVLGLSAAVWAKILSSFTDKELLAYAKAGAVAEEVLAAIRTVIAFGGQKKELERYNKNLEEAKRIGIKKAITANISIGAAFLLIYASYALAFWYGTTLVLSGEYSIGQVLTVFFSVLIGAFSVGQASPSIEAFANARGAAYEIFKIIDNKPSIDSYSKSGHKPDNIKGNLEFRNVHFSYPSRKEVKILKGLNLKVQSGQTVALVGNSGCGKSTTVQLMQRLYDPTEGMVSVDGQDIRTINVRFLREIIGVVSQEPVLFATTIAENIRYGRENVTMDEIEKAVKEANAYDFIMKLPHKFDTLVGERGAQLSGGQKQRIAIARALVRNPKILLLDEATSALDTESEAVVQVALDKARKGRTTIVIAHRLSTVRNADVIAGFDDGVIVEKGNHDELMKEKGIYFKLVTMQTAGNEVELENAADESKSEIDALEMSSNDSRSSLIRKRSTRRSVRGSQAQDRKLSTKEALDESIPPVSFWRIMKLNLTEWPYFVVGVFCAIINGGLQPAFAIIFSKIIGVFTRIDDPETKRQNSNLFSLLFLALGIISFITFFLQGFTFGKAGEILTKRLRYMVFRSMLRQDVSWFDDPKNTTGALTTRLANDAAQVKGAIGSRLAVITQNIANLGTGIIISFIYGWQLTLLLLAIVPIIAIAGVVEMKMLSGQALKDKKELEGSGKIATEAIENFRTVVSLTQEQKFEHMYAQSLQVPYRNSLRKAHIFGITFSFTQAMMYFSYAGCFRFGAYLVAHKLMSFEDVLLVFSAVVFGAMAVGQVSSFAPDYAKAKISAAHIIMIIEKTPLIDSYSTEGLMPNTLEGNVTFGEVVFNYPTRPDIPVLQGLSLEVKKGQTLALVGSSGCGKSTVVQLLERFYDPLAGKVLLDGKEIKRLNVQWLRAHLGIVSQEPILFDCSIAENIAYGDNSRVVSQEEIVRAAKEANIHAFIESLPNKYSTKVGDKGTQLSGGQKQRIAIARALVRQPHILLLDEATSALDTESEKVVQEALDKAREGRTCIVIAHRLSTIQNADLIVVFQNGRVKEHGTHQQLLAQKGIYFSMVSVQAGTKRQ
T3 sequence (P24666 whole entry): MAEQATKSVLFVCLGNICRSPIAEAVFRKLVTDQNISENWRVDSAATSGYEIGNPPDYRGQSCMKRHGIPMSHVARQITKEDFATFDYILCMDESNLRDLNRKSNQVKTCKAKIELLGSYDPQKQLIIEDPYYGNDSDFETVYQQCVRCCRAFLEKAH
Chain of Platelet-activating factor acetylhydrolase (Q60963 whole entry): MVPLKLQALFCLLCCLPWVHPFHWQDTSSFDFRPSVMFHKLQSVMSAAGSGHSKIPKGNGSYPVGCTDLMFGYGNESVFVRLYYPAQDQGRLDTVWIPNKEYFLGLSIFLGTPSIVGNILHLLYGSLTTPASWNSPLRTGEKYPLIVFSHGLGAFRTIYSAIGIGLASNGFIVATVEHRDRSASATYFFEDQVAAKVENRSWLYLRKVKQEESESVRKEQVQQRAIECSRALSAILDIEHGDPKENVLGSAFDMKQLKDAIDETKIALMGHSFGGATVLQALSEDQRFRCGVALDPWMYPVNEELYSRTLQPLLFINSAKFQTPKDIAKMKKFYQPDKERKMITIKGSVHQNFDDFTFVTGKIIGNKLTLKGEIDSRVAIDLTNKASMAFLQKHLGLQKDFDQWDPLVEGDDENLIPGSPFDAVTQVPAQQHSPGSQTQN
Chain of Induced myeloid leukemia cell differentiation protein Mcl-1 (Q07820 whole entry): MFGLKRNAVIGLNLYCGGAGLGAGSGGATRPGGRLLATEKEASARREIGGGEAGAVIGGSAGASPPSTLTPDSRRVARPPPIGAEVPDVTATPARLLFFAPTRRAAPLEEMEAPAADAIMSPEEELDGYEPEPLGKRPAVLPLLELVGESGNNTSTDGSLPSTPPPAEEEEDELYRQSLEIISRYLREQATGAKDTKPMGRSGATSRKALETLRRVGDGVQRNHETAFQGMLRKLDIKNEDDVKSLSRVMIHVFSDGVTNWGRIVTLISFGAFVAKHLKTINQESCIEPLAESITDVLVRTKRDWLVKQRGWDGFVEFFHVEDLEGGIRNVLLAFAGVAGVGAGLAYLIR
Chain of Paired box protein Pax-8 (Q06710 whole entry): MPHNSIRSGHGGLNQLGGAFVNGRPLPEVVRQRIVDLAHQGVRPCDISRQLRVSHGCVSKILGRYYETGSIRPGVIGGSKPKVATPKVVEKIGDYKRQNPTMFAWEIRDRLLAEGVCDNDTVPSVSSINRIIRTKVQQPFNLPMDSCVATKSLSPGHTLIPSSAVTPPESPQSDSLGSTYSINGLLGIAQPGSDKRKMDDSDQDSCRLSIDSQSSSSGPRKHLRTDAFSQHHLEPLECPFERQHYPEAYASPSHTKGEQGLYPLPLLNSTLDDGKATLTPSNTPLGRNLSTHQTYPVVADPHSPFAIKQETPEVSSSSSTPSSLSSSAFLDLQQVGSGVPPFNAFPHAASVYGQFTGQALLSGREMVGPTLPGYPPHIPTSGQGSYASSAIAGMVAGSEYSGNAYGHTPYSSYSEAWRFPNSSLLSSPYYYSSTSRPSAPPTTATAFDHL
Chain of Mitochondrial peptide methionine sulfoxide reductase (P54149 whole entry): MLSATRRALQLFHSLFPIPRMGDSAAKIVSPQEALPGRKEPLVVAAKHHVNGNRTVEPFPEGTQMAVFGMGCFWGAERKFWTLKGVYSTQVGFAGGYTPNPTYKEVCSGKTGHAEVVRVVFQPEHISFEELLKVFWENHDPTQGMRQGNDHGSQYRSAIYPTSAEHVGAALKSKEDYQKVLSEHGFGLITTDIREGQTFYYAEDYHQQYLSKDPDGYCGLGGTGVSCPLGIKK
Chain of Tyrosyl-DNA phosphodiesterase 2 (O95551 whole entry): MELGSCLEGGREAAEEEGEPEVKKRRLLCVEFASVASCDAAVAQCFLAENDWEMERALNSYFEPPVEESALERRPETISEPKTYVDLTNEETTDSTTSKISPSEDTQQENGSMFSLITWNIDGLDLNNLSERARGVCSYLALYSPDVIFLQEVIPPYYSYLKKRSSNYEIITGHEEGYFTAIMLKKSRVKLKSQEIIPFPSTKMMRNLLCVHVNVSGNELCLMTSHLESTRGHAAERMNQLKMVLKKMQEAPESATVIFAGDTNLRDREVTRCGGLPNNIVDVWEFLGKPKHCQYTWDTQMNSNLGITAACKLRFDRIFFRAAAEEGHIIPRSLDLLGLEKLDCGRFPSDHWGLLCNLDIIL
Chain of Potassium voltage-gated channel subfamily KQT member 2 (O88943 whole entry): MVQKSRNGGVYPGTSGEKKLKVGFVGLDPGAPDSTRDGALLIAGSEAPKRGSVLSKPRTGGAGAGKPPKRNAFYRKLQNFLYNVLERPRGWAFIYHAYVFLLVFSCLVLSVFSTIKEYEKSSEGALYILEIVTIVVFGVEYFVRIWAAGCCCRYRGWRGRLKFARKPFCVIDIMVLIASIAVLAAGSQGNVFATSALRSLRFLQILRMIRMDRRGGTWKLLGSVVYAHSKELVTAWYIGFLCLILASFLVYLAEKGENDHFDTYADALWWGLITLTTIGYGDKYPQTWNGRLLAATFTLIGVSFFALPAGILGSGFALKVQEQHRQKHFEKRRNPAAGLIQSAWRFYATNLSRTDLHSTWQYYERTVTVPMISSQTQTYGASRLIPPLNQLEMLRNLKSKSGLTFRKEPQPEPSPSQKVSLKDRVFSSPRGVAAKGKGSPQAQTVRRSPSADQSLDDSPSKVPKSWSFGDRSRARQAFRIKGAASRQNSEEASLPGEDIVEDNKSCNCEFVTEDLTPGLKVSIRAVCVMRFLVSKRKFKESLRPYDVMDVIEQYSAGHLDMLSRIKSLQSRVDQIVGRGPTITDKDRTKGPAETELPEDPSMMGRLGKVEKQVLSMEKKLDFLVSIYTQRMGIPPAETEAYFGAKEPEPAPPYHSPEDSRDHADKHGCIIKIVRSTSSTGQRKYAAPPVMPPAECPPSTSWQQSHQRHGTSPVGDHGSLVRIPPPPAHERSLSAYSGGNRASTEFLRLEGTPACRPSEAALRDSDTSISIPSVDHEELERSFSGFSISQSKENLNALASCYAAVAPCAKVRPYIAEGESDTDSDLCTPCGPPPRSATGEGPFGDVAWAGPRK

Consider `NC1=CC(=O)C(=O)c2cccnc21`, for which the EC50 in assay [1] was > 34.6 µM (inactive). For the same compound, the AC50 on Paired box protein Pax-8 is 10.5 µM (active); in assay [2] it was 0.546 µM (active). Further, the IC50 in [3] is 5.99 µM (active).
In the case of `O=C(c1ccoc1)N1CCN(c2cc(-c3cccnc3)nc3cc(-c4cccc(Cl)c4)nn23)CC1`, the EC50 is 0.26 µM (active) in assay [4] and 0.97 µM (active) in [5].
As to `COc1cc2c(cc1O)C[C@H]1NCCc3cc4c(c-2c31)OCO4`, the EC50 in assay [6] was 13.2 µM (active); in [7] it was 85.6 µM (active); in assay [8] it was > 120 µM (not active). For the same compound, the IC50 in assay [9] was 5.61 µM (active). The AC50 in [10] is 84.2 µM (active).
As for `CN1CCN(/N=C/c2nc(-c3ccccc3Cl)n3ccccc23)CC1`, in [11], the AC50 is 75.6 µM (active).
Regarding `Cc1cc(N2CCN(C(=O)Oc3ccc(C(F)(F)F)cc3)CC2)c2ccccc2n1`, the IC50 in [12] was 0.041 µM (active).
Take `O=C(COc1ccc(F)cc1)N(c1ccccn1)C1CCCCC1`: in [13], the IC50 is 1.49 µM (active).
With `CC(=O)Nc1ccc(CNc2nc(NCc3cccs3)nc3ccsc23)cc1`, the results for the IC50 in assay [14], in assay [15] and in assay [16] were 15.5 µM (active), 13.6 µM (active) and 49.5 µM (inactive), respectively.

For the origin of these results see ChEMBL document CHEMBL1201862, “PubChem BioAssay data set” (2004).
